These results are taken from patent publication US20210038607A1, “OXADIAZOLYLTHIOPHENE DERIVATIVES USEFUL AS HISTONE DEACETYLASE INHIBITORS” (Karus Therapeutics Limited, priority 2018, published 2021).

Bounds are passed on as bounds.

For test [1], the target named is T1, Human HDAC7 (Homo sapiens, UniProt Q8WUI4).
T1 construct: (a.a. 518-end) with N-terminal GST tag; GST (N); host or cells: baculovirus expression system
T1 sequence (Q8WUI4 518-952 limits assumed): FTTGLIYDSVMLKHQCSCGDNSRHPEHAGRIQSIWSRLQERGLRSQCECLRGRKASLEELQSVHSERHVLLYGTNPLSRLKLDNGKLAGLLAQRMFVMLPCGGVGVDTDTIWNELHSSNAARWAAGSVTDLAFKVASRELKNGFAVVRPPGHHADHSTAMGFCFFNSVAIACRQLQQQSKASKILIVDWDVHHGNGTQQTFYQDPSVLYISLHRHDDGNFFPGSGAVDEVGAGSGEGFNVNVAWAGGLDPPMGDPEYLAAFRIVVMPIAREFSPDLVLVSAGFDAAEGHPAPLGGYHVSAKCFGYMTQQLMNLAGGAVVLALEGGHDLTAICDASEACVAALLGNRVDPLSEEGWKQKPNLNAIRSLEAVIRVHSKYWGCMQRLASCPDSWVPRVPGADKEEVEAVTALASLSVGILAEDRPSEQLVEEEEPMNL
The test is described as follows: HDAC7 biochemical assay, class IIa-specific substrate. The following applies: read-out: HDAC Isoform IC50 (nM) 7. How it is done: (§1) Activity against all zinc-dependent HDACs 1 to 11 was assessed by using an acetylated AMC-labeled peptide substrate. The substrate RHKK(Ac)AMC was used for HDAC1, HDAC2, HDAC3, HDAC6 and HDAC10; the substrate used for HDAC8 was RHK(Ac)K(Ac)AMC. Activity against the class IIa HDACs (HDAC4, 5, 7, 9) and HDAC11 was determined using a class IIa-specific substrate, BOC-Lys(trifluoroacetyl)-AMC (“Trifluoroacetyl Lysine”; see Lahm et al, 2007, PNAS, 104, 17335-17340). All assays were based on the AMC-labeled substrate and developer combination.
(§2) The protocol involved a two-step reaction: first, the substrate with the acetylated lysine side chain is incubated with a sample containing HDAC activity, to produce the deacetylated products, which are then digested in the second step by the addition of developer to produce the fluorescent signal proportional to the amount of deacetylated substrates.
Human HDAC7 (GenBank Accession No. AY302468), (a.a. 518-end) with N-terminal GST tag, MW=78 kDa, expressed in baculovirus expression system.
(§3) Assay Buffer: 50 mM Tris-HCl, pH8.0, 137 mM NaCl, 2.7 mM KCl, 1 mM MgC2. Before use, 1 mg/mL BSA and DMSO are added.
(§4) For class IIa HDACs, assay buffer is the same.
HDAC7: 0.001 ng/ul HDAC7 and 50 μM Class IIa HDAC substrate are in the reaction buffer with 1% DMSO final. Incubate for 30 minutes at room temperature.
(§5) Stage 1: Deacetylation of substrate by incubation of HDAC enzymes with compounds
(§6) Stage 2: Development by addition of Developer to digest the deacetylated substrate, and generate the fluorescent colour; Detection: 360/460 Ex/Em

The target in test [2] is T2, Recombinant human HDAC6 (Homo sapiens, UniProt Q9UBN7).
T2 construct: full length, MW=159 kDa; GST (N); host or cells: Sf9 insect cells (baculovirus)
T2 sequence (Q9UBN7 1-1215): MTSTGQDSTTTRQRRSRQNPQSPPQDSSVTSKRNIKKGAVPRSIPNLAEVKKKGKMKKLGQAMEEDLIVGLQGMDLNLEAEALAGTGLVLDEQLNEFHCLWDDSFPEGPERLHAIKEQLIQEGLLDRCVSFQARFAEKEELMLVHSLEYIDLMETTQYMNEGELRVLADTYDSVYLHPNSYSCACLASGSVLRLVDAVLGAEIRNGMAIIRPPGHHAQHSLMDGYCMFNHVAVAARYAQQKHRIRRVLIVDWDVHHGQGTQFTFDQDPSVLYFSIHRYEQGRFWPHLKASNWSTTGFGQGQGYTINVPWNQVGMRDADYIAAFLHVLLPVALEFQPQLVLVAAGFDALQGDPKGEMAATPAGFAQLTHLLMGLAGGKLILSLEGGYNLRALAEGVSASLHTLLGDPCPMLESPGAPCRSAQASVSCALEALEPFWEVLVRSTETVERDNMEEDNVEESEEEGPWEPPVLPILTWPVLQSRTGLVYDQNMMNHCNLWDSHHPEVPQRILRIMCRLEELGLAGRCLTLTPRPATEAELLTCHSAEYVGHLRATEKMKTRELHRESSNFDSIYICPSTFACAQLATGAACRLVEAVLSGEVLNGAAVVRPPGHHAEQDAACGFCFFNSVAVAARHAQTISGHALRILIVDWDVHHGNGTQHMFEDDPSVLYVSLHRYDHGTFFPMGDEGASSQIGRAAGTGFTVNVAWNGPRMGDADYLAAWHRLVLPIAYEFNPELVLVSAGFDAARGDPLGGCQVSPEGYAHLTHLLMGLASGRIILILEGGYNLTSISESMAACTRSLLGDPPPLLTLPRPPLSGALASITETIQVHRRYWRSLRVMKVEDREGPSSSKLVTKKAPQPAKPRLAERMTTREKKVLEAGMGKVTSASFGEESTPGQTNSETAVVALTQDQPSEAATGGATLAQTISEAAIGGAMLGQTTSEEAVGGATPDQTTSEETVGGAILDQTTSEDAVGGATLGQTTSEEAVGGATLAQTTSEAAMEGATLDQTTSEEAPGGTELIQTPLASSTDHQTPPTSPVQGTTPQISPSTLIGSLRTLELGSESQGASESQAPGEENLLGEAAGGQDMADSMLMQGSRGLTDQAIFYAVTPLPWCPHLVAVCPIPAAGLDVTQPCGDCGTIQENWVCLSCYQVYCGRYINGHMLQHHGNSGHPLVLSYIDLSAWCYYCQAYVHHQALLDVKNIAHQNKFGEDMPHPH
The test is described as follows: HDAC6 biochemical assay, AMC-labeled peptide substrate. The following applies: HDAC6; read-out: HDAC Isoform IC50 (nM) 6. The procedure:
as §1, §2
Recombinant human HDAC6 (GenBank Accession No. BC069243), full length, MW=159 kDa, was expressed by baculovirus in Sf9 insect cells using an N-terminal GST tag.
as §3
HDAC6: 0.3 ng/ul HDAC6 and 50 μM HDAC substrate are in the reaction buffer with 1% DMSO final. Incubate for 1 hours at 30° C.
as §5, §6

Test [3] has as its target T3, Human HDAC9 (Homo sapiens, UniProt Q9UKV0).
T3 construct: amino acids 604-1066 with C-terminal His tag; His (C); host or cells: baculovirus expression system
Kind of test: HDAC9 biochemical assay, class IIa-specific substrate. The following applies: read-out: HDAC Isoform IC50 (nM) 9. The procedure:
as §1, §2
Human HDAC9 (GenBank Accession No. NM_178423), amino acids 604-1066 with C-terminal His tag, MW=50.7 kDa, expressed in baculovirus expression system.
as §3, §4
HDAC9: 0.06 ng/ul HDAC9 and 50 μM Class IIa HDAC substrate are in the reaction buffer with 1% DMSO final. Incubate for 30 minutes at room temperature.
as §5, §6

Test [4] concerns the target T4, Human HDAC5 (Homo sapiens, UniProt Q9UQL6).
T4 construct: full length with C-terminal His tag, MW=51.1 kDa; His (C); host or cells: baculovirus expression system
Kind of test: HDAC5 biochemical assay, class IIa-specific substrate. The note with it: read-out: HDAC Isoform IC50 (nM) 5. The procedure: as §1, §2
Human HDAC5 (GenBank Accession No. NM_005474), full length with C-terminal His tag, MW=51.1 kDa, expressed in baculovirus expression system.
as §3, §4
HDAC5: 0.05 ng/ul HDAC5 and 50 μM Class IIa HDAC substrate are in the reaction buffer with 1% DMSO final. Incubate for 30 minutes at room temperature.
as §5, §6

The target in test [5] is T5, Human HDAC4 (Homo sapiens, UniProt P56524).
T5 construct: amino acids 627-1085 with N-terminal GST tag; GST (N); host or cells: baculovirus expression system
Kind of test: HDAC4 biochemical assay, class IIa-specific substrate. The following applies: read-out: HDAC Isoform IC50 (nM) 4. The procedure:
as §1, §2
Human HDAC4 (GenBank Accession No. NM_006037), amino acids 627-1085 with N-terminal GST tag, MW=75.2 kDa, expressed in baculovirus expression system.
as §3, §4
HDAC4: 0.004 ng/ul HDAC4 and 50 μM Class IIa HDAC substrate are in the reaction buffer with 1% DMSO final. Incubate for 30 minutes at room temperature.
as §5, §6

Test [6] concerns the target T6, Human HDAC1 (Homo sapiens, UniProt Q13547).
T6 construct: full length with C-terminal His-tag and C-terminal FLAG-tag; His (C); FLAG (C); host or cells: baculovirus expression system
The test is described as follows: HDAC1 biochemical assay, AMC-labeled peptide substrate. The following applies: read-out: HDAC Isoform IC50 (nM) 1. How it is done: as §1, §2
Human HDAC1 (GenBank Accession No. NM_004964), full length with C-terminal His-tag and C-terminal FLAG-tag, MW=56 kDa, expressed in baculovirus expression system.
as §3
HDAC1: 0.3 ng/ul HDAC1 and 50 μM HDAC substrate are in the reaction buffer with 1% DMSO final. Incubate for 1 hour at 30° C.
as §5, §6

T4 sequence (Q9UQL6 656-1122 limits assumed): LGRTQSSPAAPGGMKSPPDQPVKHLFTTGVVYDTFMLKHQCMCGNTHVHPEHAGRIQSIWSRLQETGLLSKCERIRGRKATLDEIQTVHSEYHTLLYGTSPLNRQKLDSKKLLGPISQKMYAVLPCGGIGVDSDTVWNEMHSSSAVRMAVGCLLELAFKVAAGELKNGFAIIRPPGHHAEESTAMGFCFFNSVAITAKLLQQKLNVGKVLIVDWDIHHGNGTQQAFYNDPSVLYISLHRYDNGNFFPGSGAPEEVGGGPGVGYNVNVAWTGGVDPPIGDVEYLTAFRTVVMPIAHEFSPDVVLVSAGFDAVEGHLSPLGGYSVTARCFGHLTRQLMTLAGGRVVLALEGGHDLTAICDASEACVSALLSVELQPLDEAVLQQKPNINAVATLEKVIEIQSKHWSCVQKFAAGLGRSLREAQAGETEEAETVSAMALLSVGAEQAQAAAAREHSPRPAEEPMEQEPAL
T3 sequence (Q9UKV0 604-1066 isoform Q9UKV0-5): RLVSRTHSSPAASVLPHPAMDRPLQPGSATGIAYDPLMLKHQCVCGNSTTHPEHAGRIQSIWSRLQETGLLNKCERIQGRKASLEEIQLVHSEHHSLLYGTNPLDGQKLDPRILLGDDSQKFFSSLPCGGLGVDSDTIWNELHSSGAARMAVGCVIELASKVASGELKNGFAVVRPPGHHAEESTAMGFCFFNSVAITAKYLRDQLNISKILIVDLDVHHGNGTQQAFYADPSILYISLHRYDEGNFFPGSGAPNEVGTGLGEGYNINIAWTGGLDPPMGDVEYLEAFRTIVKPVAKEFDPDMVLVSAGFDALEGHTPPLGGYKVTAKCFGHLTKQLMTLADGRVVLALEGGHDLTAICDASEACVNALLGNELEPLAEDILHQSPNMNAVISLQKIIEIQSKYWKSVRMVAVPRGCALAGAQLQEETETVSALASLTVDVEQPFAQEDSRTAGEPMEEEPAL
T5 sequence (P56524 627-1084 limits assumed): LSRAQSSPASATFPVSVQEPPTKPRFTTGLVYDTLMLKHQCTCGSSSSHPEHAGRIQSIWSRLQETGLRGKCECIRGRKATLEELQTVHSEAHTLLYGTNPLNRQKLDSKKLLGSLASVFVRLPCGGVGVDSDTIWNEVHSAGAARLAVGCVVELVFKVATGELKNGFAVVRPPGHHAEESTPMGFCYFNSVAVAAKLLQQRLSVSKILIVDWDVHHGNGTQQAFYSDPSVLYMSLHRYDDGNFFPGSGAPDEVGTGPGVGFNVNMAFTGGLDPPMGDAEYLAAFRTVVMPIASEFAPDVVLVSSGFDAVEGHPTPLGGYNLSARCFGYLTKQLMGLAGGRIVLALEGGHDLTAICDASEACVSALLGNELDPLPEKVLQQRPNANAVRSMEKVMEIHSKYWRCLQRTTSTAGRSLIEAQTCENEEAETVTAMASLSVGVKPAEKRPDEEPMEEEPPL
T6 sequence (Q13547 whole entry): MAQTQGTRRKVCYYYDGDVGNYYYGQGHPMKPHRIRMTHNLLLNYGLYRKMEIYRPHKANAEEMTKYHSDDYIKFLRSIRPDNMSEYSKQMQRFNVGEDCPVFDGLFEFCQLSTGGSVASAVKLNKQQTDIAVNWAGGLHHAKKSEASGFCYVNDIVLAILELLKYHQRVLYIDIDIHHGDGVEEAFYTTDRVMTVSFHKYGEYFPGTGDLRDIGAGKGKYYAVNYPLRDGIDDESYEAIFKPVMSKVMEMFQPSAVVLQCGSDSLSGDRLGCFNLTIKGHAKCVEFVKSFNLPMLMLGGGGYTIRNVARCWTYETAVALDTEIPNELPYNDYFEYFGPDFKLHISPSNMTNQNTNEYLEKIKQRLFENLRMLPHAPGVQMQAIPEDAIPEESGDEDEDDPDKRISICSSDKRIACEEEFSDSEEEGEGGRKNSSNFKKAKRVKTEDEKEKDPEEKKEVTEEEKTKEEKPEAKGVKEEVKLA

For `FC(F)(F)c1nc(-c2ccc(CN(c3ccc(C4CC4)cn3)c3cnccn3)s2)no1` [Example AA, N-(5-Cyclopropylpyridin-2-yl)-N-({5-[5-(trifluoromethyl)-1,2,4-oxadiazol-3-yl]thiophen-2-yl}methyl)pyrazin-2-amine], the half-maximal inhibitory concentration (IC50) was at most 10000 nM in test [1]; at most 10000 nM in test [2]; at most 10000 nM in test [3]; at most 10000 nM in test [4]; at most 10000 nM in test [5]; over 10000 nM in test [6].
For the molecule `FC(F)(F)c1ccc(N(Cc2ccc(-c3noc(C(F)(F)F)n3)s2)c2cnccn2)nc1` [Example AB, N-({5-[5-(Trifluoromethyl)-1,2,4-oxadiazol-3-yl]thiophen-2-yl}methyl)-N-[5-(trifluoromethyl)pyridin-2-yl]pyrazin-2-amine], the 50% inhibitory concentration (IC50) is over 10000 nM in test [1]; at most 10000 nM in test [2]; at most 10000 nM in test [3]; at most 10000 nM in test [4]; at most 10000 nM in test [5]; over 10000 nM in test [6].
On to `CN(C)C(=O)c1ccc(N(Cc2ccc(-c3noc(C(F)(F)F)n3)s2)c2cnccn2)nc1` [Example AC, N,N-Dimethyl-6-[pyrazin-2-yl({5-[5-(trifluoromethyl)-1,2,4-oxadiazol-3-yl]thiophen-2-yl}methyl)amino]pyridine-3-carboxamide], for which the concentration for half-maximal inhibition (IC50) was at most 10000 nM in test [1]; at most 1000 nM in test [2]; at most 10000 nM in test [3]; at most 1000 nM in test [4]; at most 1000 nM in test [5]; over 10000 nM in test [6].
In the case of `FC(F)(F)c1nc(-c2ccc(CN(c3ccc(N4CCOCC4)cn3)c3cnccn3)s2)no1` [Example AD, N-[5-(Morpholin-4-yl)pyridin-2-yl]-N-({5-[5-(trifluoromethyl)-1,2,4-oxadiazol-3-yl]thiophen-2-yl}methyl)pyrazin-2-amine], the IC50 in test [1], in test [2], in test [3], in test [4], in test [5] and in test [6] was at most 10000 nM throughout.
Take `Cn1cnc2cc(N(Cc3ccc(-c4noc(C(F)(F)F)n4)s3)c3cnccn3)ncc21` [Example AE, N-{3-Methyl-3H-imidazo[4,5-c]pyridin-6-yl}-N-({5-[5-(trifluoromethyl)-1,2,4-oxadiazol-3-yl]thiophen-2-yl}methyl)pyrazin-2-amine]: the IC50 in test [1] was at most 1000 nM; in test [2] it was at most 10000 nM; in test [3], at most 10000 nM; in test [4], at most 500 nM; in test [5] it was at most 500 nM; in test [6], over 10000 nM.
As to `FC(F)(F)c1nc(-c2ccc(CN(c3cnccn3)c3cc4nccnc4cn3)s2)no1` [Example AF, N-{Pyrido[3,4-b]pyrazin-7-yl}-N-({5-[5-(trifluoromethyl)-1,2,4-oxadiazol-3-yl]thiophen-2-yl}methyl)pyrazin-2-amine], the concentration for half-maximal inhibition (IC50) in test [1] was at most 10000 nM; in test [2], at most 1000 nM; in test [3], at most 10000 nM; in test [4], at most 1000 nM; in test [5], at most 10000 nM; in test [6], over 10000 nM.
Take `FC(F)(F)c1nc(-c2ccc(CN(c3cnccn3)c3cc(C4CC4)ccn3)s2)no1` [Example AH, N-(4-Cyclopropylpyridin-2-yl)-N-({5-[5-(trifluoromethyl)-1,2,4-oxadiazol-3-yl]thiophen-2-yl}methyl)pyrazin-2-amine]: the concentration for half-maximal inhibition (IC50) in test [1] was over 10000 nM; in test [2], at most 10000 nM; in test [3] it was over 10000 nM; in test [4] it was at most 10000 nM; in test [5], over 10000 nM; in test [6], over 10000 nM.
Consider `FC(F)(F)c1ccnc(N(Cc2ccc(-c3noc(C(F)(F)F)n3)s2)c2cnccn2)c1` [Example AI, N-({5-[5-(Trifluoromethyl)-1,2,4-oxadiazol-3-yl]thiophen-2-yl}methyl)-N-[4-(trifluoromethyl)pyridin-2-yl]pyrazin-2-amine], for which the 50% inhibitory concentration (IC50) was over 10000 nM in test [1]; at most 10000 nM in test [2]; over 10000 nM in test [3]; at most 10000 nM in test [4]; over 10000 nM in test [5]; over 10000 nM in test [6].

What is called IC50 is the concentration at which inhibition is half-maximal.
